Test results reported in patent publication US9758492B2, “IDO inhibitors” (Bristol-Myers Squibb Company, priority 2013, dated 2017).

Each molecule was assayed against IDO (Homo sapiens, UniProt P14902) (assay: LLE_IDO_ABS_DR (IDO assay)).
Chain of IDO (P14902 whole entry): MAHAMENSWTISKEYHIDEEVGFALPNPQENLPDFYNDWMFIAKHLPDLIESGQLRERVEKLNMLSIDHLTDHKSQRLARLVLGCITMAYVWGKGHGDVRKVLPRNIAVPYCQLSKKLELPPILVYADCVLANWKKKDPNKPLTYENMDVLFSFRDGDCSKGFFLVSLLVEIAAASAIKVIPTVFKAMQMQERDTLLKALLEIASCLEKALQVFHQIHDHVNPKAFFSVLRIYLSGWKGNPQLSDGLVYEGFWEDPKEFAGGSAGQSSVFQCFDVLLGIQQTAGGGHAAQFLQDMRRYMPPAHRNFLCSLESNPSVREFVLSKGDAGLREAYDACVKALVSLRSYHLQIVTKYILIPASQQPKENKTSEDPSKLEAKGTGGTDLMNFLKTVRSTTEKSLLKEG

Row | SMILES | IC50 [nM]
1 | CC(C)CN(c1ccc(-c2ccccc2-c2nnn[nH]2)cc1NC(=O)Nc1ccccc1C(F)(F)F)C1CCCCC1 [Example 161, 1-(4-(cyclohexyl(isobutyl)amino)-2′-(1H-tetrazol-5-yl)biphenyl-3-yl)-3-(2-(trifluoromethyl)phenyl)urea] | 240
2 | Cc1ccc(NC(=O)Nc2cc(C3=C(c4nnn[nH]4)CCC3)ccc2N(CC(C)C)CC(C)C)cc1 [Example 164, 1-(5-(2-(1H-tetrazol-5-yl)cyclopent-1-enyl)-2-(diisobutylamino)phenyl)-3-p-tolylurea] | 5.4
3 | CCCN(c1ccc(-c2ccccc2C(=O)O)cc1NC(=O)Nc1ccc(C)cc1)C1CCCC1 [Example 165, 4′-(cyclopentyl(propyl)amino)-3′-(3-p-tolylureido)biphenyl-2-carboxylic acid] | 10
4 | CCCN(c1ccc(-c2cc(F)ccc2C(=O)O)cc1NC(=O)Nc1ccc(C)cc1)C1CCCC1 [Example 166, 4′-(cyclopentyl(propyl)amino)-5-fluoro-3′-(3-p-tolylureido) biphenyl-2-carboxylic acid] | 20
5 | CCCN(c1ccc(-c2ccccc2C(=O)O)cc1NC(=O)Nc1ccccc1F)C1CCCC1 [Example 168, 4′-(cyclopentyl(propyl)amino)-3′-(3-(2-fluorophenyl)ureido) biphenyl-2-carboxylic acid] | 30
6 | CCCN(c1ccc(-c2ccccc2-c2nnn[nH]2)cc1NC(=O)Nc1ccc(C)cc1)C1CCCC1 [Example 169, 1-(4-(cyclopentyl(propyl)amino)-2′-(1H-tetrazol-5-yl)biphenyl-3-yl)-3-p-tolylurea] | 4.55
7 | CCCN(c1ccc(-c2ccccc2-c2nnn[nH]2)cc1NC(=O)Nc1ccccc1F)C1CCCC1 [Example 170, 1-(4-(cyclopentyl(propyl)amino)-2′-(1H-tetrazol-5-yl)biphenyl-3-yl)-3-(2-fluorophenyl)urea] | 5.68
8 | Cc1ccc(NC(=O)Nc2cc(-c3cc(F)ccc3C(=O)O)ccc2N(CC(C)C)C2CCCC2)cc1 [Example 171, 4′-(cyclopentyl(isobutyl)amino)-5-fluoro-3′-(3-p-tolylureido)biphenyl-2-carboxylic acid] | 20
9 | CC(C)CN(c1ccc(-c2ccccc2C(=O)O)cc1NC(=O)Nc1ccccc1F)C1CCCC1 [Example 173, 4′-(cyclopentyl(isobutyl)amino)-3′-(3-(2-fluorophenyl)ureido) biphenyl-2-carboxylic acid] | 10
10 | CC(C)CN(c1ccc(-c2ccccc2-c2nnn[nH]2)cc1NC(=O)Nc1ccccc1F)C1CCCC1 [Example 175, 1-(4-(cyclopentyl (isobutyl)amino)-2′-(1H-tetrazol-5-yl)biphenyl-3-yl)-3-(2-fluorophenyl)urea] | 4.36
11 | CC(C)CN(c1ccc(-c2cc(F)ccc2C(=O)O)cc1NC(=O)Nc1ccccc1F)C1CCCC1 [Example 176, 4′-(cyclopentyl(isobutyl)amino)-5-fluoro-3′-(3-(2-fluorophenyl)ureido) biphenyl-2-carboxylic acid] | 7.86
12 | CCCCN(c1ccc(-c2ccccc2C(=O)O)cc1NC(=O)Nc1ccc(C)cc1)C1CCCCC1 [Example 177, 4′-(butyl(cyclohexyl)amino)-3′-(3-(p-tolyl)ureido)-[1,1′-biphenyl]-2-carboxylic acid] | 9.59
13 | Cc1ccc(NC(=O)Nc2cc(-c3ccccc3-c3nnn[nH]3)ccc2N(C)CC(C)C)cc1 [Example 179, 1-(4-(isobutyl(methyl)amino)-2′-(1H-tetrazol-5-yl)-[1,1′-biphenyl]-3-yl)-3-(p-tolyl)urea] | 50
14 | Cc1ccc(NC(=O)Nc2cc(-c3ccccc3C(=O)O)ccc2N(C)CC(C)C)cc1 [Example 180, 4′-(isobutyl(methyl)amino)-3′-(3-(p-tolyl)ureido)-[1,1′-biphenyl]-2-carboxylic acid] | 230
15 | Cc1ccc(NC(=O)Nc2cc(-c3ccccc3C(=O)O)ccc2N(CC(C)C)C2CCC2)cc1 [Example 183, 4′-(cyclobutyl(isobutyl)amino)-3′-(3-(p-tolyl)ureido)-[1,1′-biphenyl]-2-carboxylic acid] | 20
16 | Cc1ccc(NC(=O)Nc2cc(-c3ccccc3-c3nnn[nH]3)ccc2N(CC(C)C)C2CCC2)cc1 [Example 184, 1-(4-(cyclobutyl(isobutyl)amino)-2′-(1H-tetrazol-5-yl)-[1,1′-biphenyl]-3-yl)-3-(p-tolyl)urea] | 10
17 | CCCN(Cc1ccccc1)c1ccc(-c2cc(F)ccc2C(=O)O)cc1NC(=O)Nc1ccc(C)cc1 [Example 186, 4′-(benzyl(propyl)amino)-5-fluoro-3′-(3-(p-tolyl)ureido)-[1,1′-biphenyl]-2-carboxylic acid] | 30
18 | CCCN(Cc1ccccc1)c1ccc(-c2ccccc2C(=O)O)cc1NC(=O)Nc1ccc(C)cc1 [Example 187, 4′-(benzyl(propyl)amino)-3′-(3-(p-tolyl)ureido)-[1,1′-biphenyl]-2-carboxylic acid] | 20
19 | Cc1ccc(NC(=O)Nc2cc(-c3ccccc3-c3nnn[nH]3)ccc2N(CCC(C)C(F)(F)F)C2CCCCC2)cc1 (stereo not drawn) [Example 190, 1-(4-(cyclohexyl(4,4,4-trifluoro-3-methylbutyl)amino)-2′-(1H-tetrazol-5-yl)-[1,1′-biphenyl]-3-yl)-3-(p-tolyl)urea] | 80
20 | COCCN(Cc1ccc(Cl)cc1)c1ccc(-c2ccccc2-c2nnn[nH]2)cc1NC(=O)Nc1ccc(C)cc1 [Example 191, 1-(4-((4-chlorobenzyl)(2-methoxyethyl)amino)-2′-(1H-tetrazol-5-yl)-[1,1′-biphenyl]-3-yl)-3-(p-tolyl)urea] | 5.79
21 | Cc1ccc(NC(=O)Nc2cc(-c3ccccc3-c3nnn[nH]3)ccc2N(CCC(F)(F)F)C2CCCCC2)cc1 [Example 195, 1-(4-(cyclohexyl(3,3,3-trifluoropropyl)amino)-2′-(1H-tetrazol-5-yl)-[1,1′-biphenyl]-3-yl)-3-(p-tolyl)urea] | 4.79
22 | Cc1ccc(NC(=O)Nc2cc(-c3ccccc3C(=O)O)ccc2N(CC(F)F)C2CCCCC2)cc1 [Example 196, 4′-(cyclohexyl(2,2-difluoroethyl)amino)-3′-(3-(p-tolyl)ureido)-[1,1′-biphenyl]-2-carboxylic acid] | 20
23 | Cc1ccc(NC(=O)Nc2cc(-c3ccccc3C(=O)O)ccc2N(CCC(F)(F)F)C2CCCCC2)cc1 [Example 197, 4′-(cyclohexyl(3,3,3-trifluoropropyl)amino)-3′-(3-(p-tolyl)ureido)-[1,1′-biphenyl]-2-carboxylic acid] | 10

More lines, now with the values ahead:

Row | IC50 [nM] | SMILES
24 | 1270 | CC(C)CN(c1ccc(-c2ccccc2C(=O)O)cc1NC(=O)Nc1ccccc1C(F)(F)F)C1CCCCC1 [Example 162, 4′-(cyclohexyl (isobutyl)amino)-3′-(3-(2-(trifluoromethyl)phenyl)ureido)biphenyl-2-carboxylic acid]
25 | 1030 | CC(C)CN(c1ccc(-c2cc(F)ccc2C(=O)O)cc1NC(=O)Nc1ccccc1C(F)(F)F)C1CCCCC1 [Example 163, 4′-(cyclohexyl (isobutyl)amino)-5-fluoro-3′-(3-(2-(trifluoromethyl)phenyl)ureido) biphenyl-2-carboxylic acid]
26 | 40 | CCCN(c1ccc(-c2cc(F)ccc2C(=O)O)cc1NC(=O)Nc1ccccc1F)C1CCCC1 [Example 167, 4′-(cyclopentyl(propyl)amino)-5-fluoro-3′-(3-(2-fluorophenyl)ureido)biphenyl-2-carboxylic acid]
27 | 10 | Cc1ccc(NC(=O)Nc2cc(-c3ccccc3C(=O)O)ccc2N(CC(C)C)C2CCCC2)cc1 [Example 172, 4′-(cyclopentyl(isobutyl)amino)-3′-(3-p-tolylureido)biphenyl-2-carboxylic acid]
28 | 9.92 | Cc1ccc(NC(=O)Nc2cc(-c3ccccc3-c3nnn[nH]3)ccc2N(CC(C)C)C2CCCC2)cc1 [Example 174, 1-(4-(cyclopentyl (isobutyl)amino)-2′-(1H-tetrazol-5-yl)biphenyl-3-yl)-3-p-tolylurea]
29 | 5.49 | CCCCN(c1ccc(-c2cc(F)ccc2C(=O)O)cc1NC(=O)Nc1ccc(C)cc1)C1CCCCC1 [Example 178, 4′-(butyl(cyclohexyl)amino)-5-fluoro-3′-(3-(p-tolyl)ureido)-[1,1′-biphenyl]-2-carboxylic acid]
30 | 270 | Cc1ccc(NC(=O)Nc2cc(-c3cc(F)ccc3C(=O)O)ccc2N(C)CC(C)C)cc1 [Example 181, 5-fluoro-4′-(isobutyl(methyl)amino)-3′-(3-(p-tolyl)ureido)-[1,1′-biphenyl]-2-carboxylic acid]
31 | 50 | Cc1ccc(NC(=O)Nc2cc(-c3cc(F)ccc3C(=O)O)ccc2N(CC(C)C)C2CCC2)cc1 [Example 182, 4′-(cyclobutyl(isobutyl)amino)-5-fluoro-3′-(3-(p-tolyl)ureido)-[1,1′-biphenyl]-2-carboxylic acid]
32 | 2.63 | CCCN(Cc1ccccc1)c1ccc(-c2ccccc2-c2nnn[nH]2)cc1NC(=O)Nc1ccc(C)cc1 [Example 185, 1-(4-(benzyl(propyl)amino)-2′-(1H-tetrazol-5-yl)-[1,1′-biphenyl]-3-yl)-3-(p-tolyl)urea]
33 | 290 | Cc1ccc(NC(=O)Nc2cc(-c3ccccc3C(=O)O)ccc2N(CCC(C)C(F)(F)F)C2CCCCC2)cc1 (stereo not drawn) [Example 188, 4′-(cyclohexyl(4,4,4-trifluoro-3-methylbutyl)amino)-3′-(3-(p-tolyl)ureido)-[1,1′-biphenyl]-2-carboxylic acid]
34 | 480 | Cc1ccc(NC(=O)Nc2cc(-c3cc(F)ccc3C(=O)O)ccc2N(CCC(C)C(F)(F)F)C2CCCCC2)cc1 (stereo not drawn) [Example 189, 4′-(cyclohexyl(4,4,4-trifluoro-3-methylbutyl)amino)-5-fluoro-3′-(3-(p-tolyl)ureido)-[1,1′-biphenyl]-2-carboxylic acid]
35 | 7.82 | COCCN(Cc1ccc(Cl)cc1)c1ccc(-c2ccccc2C(=O)O)cc1NC(=O)Nc1ccc(C)cc1 [Example 192, 4′-((4-chlorobenzyl)(2-methoxyethyl)amino)-3′-(3-(p-tolyl)ureido)-[1,1′-biphenyl]-2-carboxylic acid]
36 | 4.74 | Cc1ccc(NC(=O)Nc2cc(-c3ccccc3-c3nnn[nH]3)ccc2N(CC(F)F)C2CCCCC2)cc1 [Example 194, 1-(4-(cyclohexyl(2,2-difluoroethyl)amino)-2′-(1H-tetrazol-5-yl)-[1,1′-biphenyl]-3-yl)-3-(p-tolyl)urea]
